Results on 2 compounds are retold here after ChEMBL document CHEMBL1629647, “Preclinical evaluation of GS-9160, a novel inhibitor of human immunodeficiency virus type 1 integrase” (Antimicrob Agents Chemother, 2009).

The subject of data set [1] is Human immunodeficiency virus 1. Description: Antiviral activity against 0.001 MOI HIV1 BAL infected in human T lymphocyte cells by p24 antigen ELISA in presence of 10% FBS, HSA and alpha1-AGP. It counts as functional, organism-based. Conditions: Human immunodeficiency virus 1, BAL. For orientation: In an ELISA, binding on a coated surface is turned into a signal by an enzyme label.

Data set [2] can be described thus: Selectivity index, ratio of CC50 for human T lymphocyte cells to EC50 for HIV1 BAL in presence of 10% FBS. It counts as toxicity, cell-based.
Data set [3] deals with Human immunodeficiency virus 1. Description: Selectivity ratio of EC50 for antiviral activity against NNRTI-resistant HIV1 harboring RTK103N mutant gene to EC50 for antiviral activity against wild-type HIV1 3B. It counts as functional.
For data set [4], the system named is Human immunodeficiency virus 1. Description: Selectivity ratio of EC50 for antiviral activity against EFV-resistant HIV1 selected after 7 passages to EC50 for antiviral activity against wild-type HIV1 3B. It counts as functional.
The test system of data set [5] is Human immunodeficiency virus 1. Description: Selectivity ratio of EC50 for antiviral activity against APV-resistant HIV1 selected after 4 passages to EC50 for antiviral activity against wild-type HIV1 3B. It counts as functional.
Data set [6] relates to Human immunodeficiency virus 1. Description: Selectivity ratio of EC50 for antiviral activity against GS-9160-resistant HIV1 selected after 5 passages to EC50 for antiviral activity against wild-type HIV1 3B. It counts as functional.
The subject of data set [7] is Human immunodeficiency virus 1. As to the kind of experiment: Selectivity ratio of EC50 for antiviral activity against GS-9160-resistant HIV1 selected after 8 passages to EC50 for antiviral activity against wild-type HIV1 3B. It counts as functional.
The test system of data set [8] is Human immunodeficiency virus 1. Description: Selectivity ratio of EC50 for antiviral activity against HIV1 harboring E92V mutation in catalytic core domain of integrase to EC50 for antiviral activity against wild-type HIV1 3B. It counts as functional.
Data set [9] has as its system Human immunodeficiency virus 1. As to the kind of experiment: Selectivity ratio of EC50 for antiviral activity against HIV1 harboring G140S mutation in catalytic core domain of integrase to EC50 for antiviral activity against wild-type HIV1 3B. It counts as functional.
Data set [10] relates to Human immunodeficiency virus 1. Description: Selectivity ratio of EC50 for antiviral activity against HIV1 harboring Q148K mutation in catalytic core domain of integrase to EC50 for antiviral activity against wild-type HIV1 3B. It counts as functional.
Data set [11] relates to Human immunodeficiency virus 1. Description: Selectivity ratio of EC50 for antiviral activity against HIV1 harboring G140S and Q148H mutation in catalytic core domain of integrase to EC50 for antiviral activity against wild-type HIV1 3B. It counts as functional.
A short description of a further data set: in vitro. To be noted: human, MT2 cells.
Data set [12] concerns Human immunodeficiency virus 1. As to the kind of experiment: Antiviral activity against HIV1 3B infected in human MT-4 cells by two fold dilution method in presence of 10% FBS. It counts as functional, organism-based. Conditions: Human immunodeficiency virus 1, 3B, MT4.

Description for in vitro: Selectivity index, ratio of CC50 for human MT2 cells to EC50 for HIV1 3B in presence of 10% FBS

`O=C(NCc1ccc(F)cc1)c1nc(N2CCCCS2(=O)=O)c2cccnc2c1O`: the concentration giving a half-maximal response (EC50) – broadly, the concentration needed to bring the measured effect to its halfway point – in data set [1] came out at 60 nM. Moreover, the selectivity ratio was 700 in [2] and 1500 in “in vitro”. For the same compound, the “Ratio EC50” value worked out at 1 in data set [3]; 1.3 in data set [4]; 1.9 in data set [5]; 2.7 in [6]; 65 in [7]; 8 in data set [8]. Also, the “Ratio EC50” value was 2 in [9], 35 in data set [10] and 478 in [11].

As for `CN(c1c2c(c(O)c3ncccc13)C(=O)N(Cc1ccc(F)cc1)C2)S(C)(=O)=O`, the concentration giving a half-maximal response (EC50) in data set [12] was 0.7 nM; in [1], 15 nM. Besides, the figures for the selectivity ratio (in [2]; in “in vitro”) were 2670 and 1900, respectively. Moreover, the “Ratio EC50” value was 1 in data set [3]; 0.6 in data set [4]; 1.6 in data set [5]; 4.3 in [6]; 60 in [7]; 12 in data set [8]. For the same compound, the entries for the “Ratio EC50” value in data set [9], in data set [10] and in data set [11] were 2, 23 and 1132, respectively.
